# Measurements taken from patent publication US12503454B2, “LPA receptor antagonists and uses thereof” (Gilead Sciences, Inc., priority 2021, dated 2025).
# Biological target: human LPAR1 (Homo sapiens, UniProt Q92633)
# Assay: LPAR1 intracellular calcium mobilization assay (antagonist mode, FLIPR)
# Type: cell-based
# Conditions: CHO-K1 EDG2 cells expressing human LPAR1; test compound 0.5 nM to 10 μM pre-incubated 60 minutes at 37° C., then LPA 18:2 at EC80 concentration (100 nM)
# In short: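 CHO-K1 cells expressing human LPAR1, Calcium 6 dye-loaded with 2.5 mM probenecid, pre-incubated 60 min at 37°C with compound (0.5 nM–10 μM), then challenged with LPA 18:2 at EC80 (100 nM). FLIPR Tetra signal amplitude (max minus min) plotted against log concentration.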
# Chain of human LPAR1 (Q92633 whole entry): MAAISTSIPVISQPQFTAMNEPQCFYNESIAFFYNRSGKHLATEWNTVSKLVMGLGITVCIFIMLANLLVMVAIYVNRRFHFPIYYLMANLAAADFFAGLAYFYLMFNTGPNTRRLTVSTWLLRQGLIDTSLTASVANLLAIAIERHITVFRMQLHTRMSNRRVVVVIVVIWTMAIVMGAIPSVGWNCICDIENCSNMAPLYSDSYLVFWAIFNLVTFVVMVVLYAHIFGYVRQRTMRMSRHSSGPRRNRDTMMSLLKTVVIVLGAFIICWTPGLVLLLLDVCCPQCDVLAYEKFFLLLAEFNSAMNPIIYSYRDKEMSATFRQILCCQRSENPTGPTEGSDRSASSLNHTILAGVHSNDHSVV
row,EC50,SMILES
1,23.2 nM,"C[C@@H](OC(=O)Nc1c(-c2ncc(C(=O)NC34CC(C#N)(C3)C4)cc2F)nnn1C)c1cccnc1Cl [Compound 59, (R)-1-(2-chloropyridin-3-yl)ethyl (4-(5-((3-cyanobicyclo[1.1.1]pentan-1-yl)carbamoyl)-3-fluoropyridin-2-yl)-1-methyl-1H-1,2,3-triazol-5-yl)carbamate]"
2,93.4 nM,"C[C@@H](OC(=O)Nc1c(-c2ccc(C(=O)NC34CC(F)(C3)C4)c(Cl)n2)nnn1C)c1cccnc1Cl [Compound 60, (R)-1-(2-chloropyridin-3-yl)ethyl (4-(6-chloro-5-((3-fluorobicyclo[1.1.1]pentan-1-yl)carbamoyl)pyridin-2-yl)-1-methyl-1H-1,2,3-triazol-5-yl)carbamate]"
3,233 nM,"C[C@@H](OC(=O)Nc1c(-c2cc(F)c(C(=O)NC34CC(C#N)(C3)C4)cn2)nnn1C)c1cccnc1Cl [Compound 61, (R)-1-(2-chloropyridin-3-yl)ethyl (4-(5-((3-cyanobicyclo[1.1.1]pentan-1-yl)carbamoyl)-4-fluoropyridin-2-yl)-1-methyl-1H-1,2,3-triazol-5-yl)carbamate]"
4,14.5 nM,"C[C@@H](OC(=O)Nc1c(-c2ccc(C(=O)NC34CC(C#N)(C3)C4)c(C(F)(F)F)n2)nnn1C)c1cccnc1Cl [Compound 62, (R)-1-(2-chloropyridin-3-yl)ethyl (4-(5-((3-cyanobicyclo[1.1.1]pentan-1-yl)carbamoyl)-6-(trifluoromethyl)pyridin-2-yl)-1-methyl-1H-1,2,3-triazol-5-yl)carbamate]"
5,145 nM,"C[C@@H](OC(=O)Nc1c(-c2ccc(C(=O)NC34CC(F)(C3)C4)c(F)n2)nnn1C)c1cccnc1Cl [Compound 63, (R)-1-(2-chloropyridin-3-yl)ethyl (4-(6-fluoro-5-((3-fluorobicyclo[1.1.1]pentan-1-yl)carbamoyl)pyridin-2-yl)-1-methyl-1H-1,2,3-triazol-5-yl)carbamate]"
6,93.5 nM,"C[C@@H](OC(=O)Nc1c(-c2ncc(C(=O)NC34CC(F)(C3)C4)cc2F)nnn1C)c1cccnc1Cl [Compound 64, (R)-1-(2-chloropyridin-3-yl)ethyl (4-(3-fluoro-5-((3-fluorobicyclo[1.1.1]pentan-1-yl)carbamoyl)pyridin-2-yl)-1-methyl-1H-1,2,3-triazol-5-yl)carbamate]"
7,< 4.6 nM,"C[C@@H](OC(=O)Nc1c(-c2ccc(C(=O)NC34CC(C#N)(C3)C4)c(Cl)n2)nnn1C)c1cccnc1Cl [Compound 65, (R)-1-(2-chloropyridin-3-yl)ethyl (4-(6-chloro-5-((3-cyanobicyclo[1.1.1]pentan-1-yl)carbamoyl)pyridin-2-yl)-1-methyl-1H-1,2,3-triazol-5-yl)carbamate]"
8,210 nM,"C[C@@H](OC(=O)Nc1c(-c2ccc(C(=O)NC34CC(F)(C3)C4)c(C(F)(F)F)n2)nnn1C)c1cccnc1Cl [Compound 66, (R)-1-(2-chloropyridin-3-yl)ethyl (4-(5-((3-fluorobicyclo[1.1.1]pentan-1-yl)carbamoyl)-6-(trifluoromethyl)pyridin-2-yl)-1-methyl-1H-1,2,3-triazol-5-yl)carbamate]"
